Test results published in patent US9770451B2, “Composition including ATM inhibitor for reducing cellular senescence and use of the composition” (Samsung Electronics Co., Ltd., priority 2014, dated 2017).

Experiments:
Type in all cases: cell-based, human
[1] = system: progeria senescent fibroblasts (passage 17); test: Mitochondrial membrane potential (JC-1); conditions: CP-466722 0.1 μM
Description: The mitochondrial activity potential (i.e., mitochondrial membrane potential) was measured according to the protocol of the manufacturer of the MitoProbe™ JC-1 assay kit for flow cytometry (Life technologies: T3168). […] Consequently, mitochondrial depolarization is indicated by a decrease in the red/green fluorescence intensity ratio. The cultured cells were analyzed by flow cytometry by using an FACSCaliber (Beckton Dickinson) using excitation at a wavelength of 488 nm, and band-pass emission light filters at a wavelength of 530/30 nm and 585/42 nm. The results were analyzed using Cell Quest 3.2 software (Beckton Dickinson). FIG. 12 is a graph showing results of measuring mitochondrial activity potential (B) of the cultured cells. […]
The mitochondrial activity potential (i.e., mitochondrial membrane potential) was measured according to the protocol of the manufacturer using the MitoProbe™ JC-1 assay kit for flow cytometry (Life technologies: T3168). […] Consequently, mitochondrial depolarization is indicated by a decrease in the red/green fluorescence intensity ratio. The cultured cells were analyzed by flow cytometry by using an FACSCaliber (Beckton Dickinson) using excitation at a wavelength of 488 nm, and band-pass emission light filters at a wavelength of 530/30 nm and 585/42 nm. The results were analyzed using Cell Quest 3.2 software (Beckton Dickinson).

[2] = system: progeria senescent fibroblasts (passage 17); test: DNA comet assay; conditions: CP-466722 0.1 μM, 4 weeks
Description: To determine the extent of recovery of the senescent cells to the DNA damage in accordance with the ATM-kinase inhibitor, the DNA comet assay (Trevigen, 4250-050-K) was carried out according to the protocol of the manufacturer. The principle of the DNA comet assay is based on gel electrophoresis. The damaged DNA moves farther away in the electrophoresis process than the undamaged DNA, resulting in the formation of a comet-tail shape. Afterwards, a slide used herein was stained with cyber green (SYBR Green), so that the tail length of the DNA fragment was measured by using fluorescence microscopy to confirm the extent of the DNA damage. The extent of the DNA damage may be measured as a tail moment value obtained by multiplying tail DNA % by the distance of migration of DNA fragmentation from the nucleus or the tail length. […]
To determine the extent of recovery of the senescent cells to the DNA damage in accordance with the ATM-kinase inhibitor, the DNA comet assay (Trevigen, 4250-050-K) was carried out according to the protocol of the manufacturer. […] Afterwards, a slide used herein was stained with cyber green (SYBR Green), so that the tail length of the DAN fragment was measured by using fluorescence microscopy to confirm the extent of the DNA damage. […]

[3] = system: senescent myoblasts (passage 11); test: Lipofuscin autofluorescence (FACS); conditions: CP-466722 0.1 μM, 4 weeks
Description: In addition, the amounts of lipofuscin in the cells cultured as described above were measured. The senescent myoblast (passage 11) that became senescent in the presence of KU-60019 (0.5 μM) were cultured in a CO2 incubator at a temperature of 37° C. for 4 weeks. The medium was replaced by a fresh medium containing KU-60019 (0.5 μM), once every 4 days. Lipofuscin is characterized by having autofluorescence capability, and in this regard, the cultured cells were irradiated with a wavelength of 488 nm by using a FACSCaliber (Beckton Dickinson), and then, measured with radiation emitted from a wavelength of 520 nm. The results were analyzed using Cell Quest 3.2 software (Beckton Dickinson). FIG. 17 is a graph showing lipofuscin measured in the cells that were cultured in the presence of KU-60019.
In addition, the amounts of lipofuscin in the cells cultured as described above were measured. […] Lipofuscin is characterized by having autofluorescence capability, and in this regard, the cultured cells were irradiated with a wavelength of 488 nm by using a FACSCaliber (Beckton Dickinson), and then, measured with radiation emitted from a wavelength of 520 nm. The results were analyzed using Cell Quest 3.2 software (Beckton Dickinson). FIG. 23 is a graph showing lipofuscin measured in the cells that were cultured in the presence of CP-466722.

## COc1cc2ncnc(-n3nc(-c4ccccn4)nc3N)c2cc1OC [CP-466722, 2-(6,7-dimethoxyquinazolin-4-yl)-5-(pyridin-2-yl)-2H-1,2,4-triazol-3-amine]
[1]
  mitochondrial activity potential vs control: significantly increased
[2]
  DNA damage (tail moment) vs DMSO control: significantly decreased
[3]
  amount of lipofuscin vs control: significantly decreased
